According to patent US7334580B2, “Methods, devices and formulations for targeted endobronchial therapy” (priority 2003, dated 2008):

Test: Antibiotic aerosol delivery with nebulizer at distal Y position, three nebulizers
Parameters: unit not given here
Conditions: T-BIRD, continuous
From the text: The inhaled mass filter 1040 allows one to do accurate measurements of what delivery amounts are actually reaching the patient 10.
In a second experiment, the arrangements of FIGS. 15A and 15B were used with a single commercially available ventilator (the T-Bird ventilator) together with three different commercially available nebulizers. The nebulizer actuation was examined in the “continuous” mode. The humidity feature for these ventilators was examined by performing the test both when the feature is active and when it is off. An expiratory line filter was also used (not shown). Clearly, the Portex nebulizer performed poorly under these conditions.

[1] = AEROGEN nebulizer, humidity OFF
[2] = AEROTECH nebulizer, humidity OFF
[3] = AEROTECH nebulizer, humidity ON

| Molecule | MMAD [1] | MMAD (AEROGEN nebulizer, humidity ON) | MMAD [2] | MMAD [3] | MMAD (PORTEX nebulizer, humidity ON) |
| --- | --- | --- | --- | --- | --- |
| gentamicin | 1.1 | 1.2 | 0.9 | 1.3 | 0.9 |
| CN[C@H](CC(C)C)C(=O)N[C@H]1C(=O)N[C@@H](CC(N)=O)C(=O)N[C@H]2C(=O)N[C@H]3C(=O)N[C@H](C(=O)N[C@H](C(=O)O)c4cc(O)cc(O)c4-c4cc3ccc4O)[C@H](O)c3ccc(c(Cl)c3)Oc3cc2cc(c3O[C@@H]2O[C@H](CO)[C@@H](O)[C@H](O)[C@H]2O[C@H]2C[C@](C)(N)[C@H](O)[C@H](C)O2)Oc2ccc(cc2Cl)[C@H]1O [VANCOMYCIN, vancomycin] | 2 | 2 | 1.7 | 1.1 | 1.1 |
